According to US20240123022A1, “A STABLE ANTI-ANGIOGENIC AND ANTI-INFLAMMATORY PHARMACEUTICAL FORMULATION AND PHARMACEUTICAL COMBINATION FOR TREATMENT AND PREVENTION OF PSORIASIS” (priority 2021, published 2024):

Columns and labels:
[1] = system: Imiquimod (IMQ) induced psoriasis model using Balb/c mice; test: IMQ induced psoriasis model, routes of administration (SC, IM, IV, IP); assay type: in vivo; details: for TNF-α reduced to / reduction in IL-23: ear homogenate
Protocol: The study was conducted in healthy, adult female Balb/c mice. All the animals were acclimatized to laboratory condition prior to experiment initiation.
Animals were randomized into 10 groups containing 6 animals each group, based on their body weight. Approximately 63 mg of IMQ cream (5%) (containing 3.125 mg of IMQ) was weighed and applied topically each on dorsal area (shaved back) and right ear of mice for 8 days in group 3-10. Groups 1 and 2 were served as controls and were treated with appropriate vehicle. Later groups 1 and 2 were merged for better calculation purpose.
Body weight, ear thickness and dorsal skin thickness was measured daily using digital caliper. Erythema index was recorded by mexameter and clinical scoring was also done daily for dorsal psoriatic area.
On day 9, animals were anesthetized for blood collection followed by euthanasia by C02 asphyxiation as per in-house approved standard protocol.
About 4 mm ear punch biopsy was collected, weighed and fixed in about 10% neutral buffer formalin for histopathological analysis (via H and E staining). Remaining ear was excised and stored at about −80° C. for inflammatory cytokine analysis. Dorsal skin was also collected, and half was kept in formalin. Spleen was also collected and weighed and kept in formalin.
In this study three different routes i.e., SC, IM and IV at different doses ranging from 0.3, 0.6 and 1.2 mg/kg were used to see dose response curve, the results were as follows: […]

[2] = Stability of IS217 1% cream, long term 30° C. ± 2° C./65% RH; assay type: physicochemical; details: 24 months at room temperature
Protocol: The purpose of stability testing is to provide evidence on how the quality of a drug product varies with time under the influence of a variety of environmental factors such as temperature, humidity, etc. and to establish a re-test period for the drug substance or a shelf life for the drug product and recommended storage conditions. The study was conducted according to the WHO and schedule-Y guidelines.
The drug product was manufactured by Issar Pharma. Three batches were manufactured at pilot scale level by the same synthetic route as, and using a method of manufacture and procedure that simulates the final process to be used for, production batches. The overall quality of the batches of drug product placed on these stability studies will be representative of the quality of the material to be made on a production scale.
A soft squeezable plastic tube will be used as primary packing material. The tube is a cylindrical, hollow piece with a rounded shape design.
This study has included testing of those attributes of the drug product that are susceptible to change during storage and are likely to influence quality, safety and/or efficacy. The testing was covered, as appropriate, the physical and chemical attributes. […]

[3] = system: Salmonella typhimurium tester strains; test: Bacterial reverse mutation test; assay type: cell-based; details: five tester strains, upto 1000 μg/plate, with and without metabolic activation
Source text: 17.1: Bacterial Reverse Mutation Test in Salmonella typhimurium Tester Strains:
This was confirmed by in vivo studies which are mandatory for any drug, as a part of safety toxicological studies.

H-FAKKFAKKFK-OH [IS217, H-Phe-Ala-Lys-Lys-Phe-Ala-Lys-Lys-Phe-Lys-OH]
ear biopsy weight ([1]; 0.3 mg/kg SC, day 9, vs other doses and routes): maximum effect
hyperkeratosis, edema, inflammatory cell infiltration and ear thickness in histopathology examination of ear ([1]; 0.3 mg/kg SC, p < 0.01): reduced
TNF-α reduced to ([1]; 0.6 mg/kg): 13.94%
reduction in IL-23 ([1]; 0.6 mg/kg): 49.68%
TNF-α level in ear tissue homogenate ([1]; 1.2 mg/kg SC): partially reduced
TNF-α and IL-23 levels, rete peg proliferation in histopathology examination of ear ([1]; 1.2 mg/kg SC, p < 0.01): dose lowered
absolute ear thickness reduction, maximum inhibition ([1]; 1.2 mg/kg dose): 80.36%
TNF-α reduced to ([1]; 1.2 mg/kg): 24.25%
reduction in IL-23 ([1]; 1.2 mg/kg): 59.85%
reduction of IL-23 levels ([1]; 0.3-1.2 mg/kg SC, by all above observations): prominent dose dependent results
percentage inhibition of ear inflammation, maximum inhibitory activity ([1]; IM route): 59.12%
body weight ([1]; IS217 SC, IM, IV, IP, 8 days): No significant change
IL-17 in ear tissue homogenate ([1]; IV treatment): maximum inhibition
spleen weight reduction ([1]; IV treatment group, not statistically significant): maximum reduction
spleen weight reduction ([1]; SC treatment groups): No effect
IMQ induced hyperkeratosis, edema, Rete Peg proliferation, inflammatory cell infiltration (ear histopathology) ([1]; SC, low dose of 0.3 mg/kg): maximum reduction
cumulative psoriatic score of dorsal area ([1]; any treatment group): No significant reduction
erythema index ([1]; any treatment group): No significant reduction
percentage inhibition of ear inflammation, maximum inhibitory response ([1]; low dose, from day 6): 32.08%
IL-17A and spleen weight ([1]; mouse, in vivo): no trend
stability of drug product (1% cream) [2]: stable
mutagenicity (gene mutations at histidine locus) [3]: non mutagenic
